# Results as given in patent US5767269A, “Processes for the preparation of low-affinity, low molecular weight heparins useful as antithrombotics” (Hamilton Civic Hospitals Research Development Inc., priority 1996, dated 1998).
# What was measured:
# surface-bound thrombin = experiment: Extracorporeal recirculation circuit: clotting of the filter in recalcified human whole blood; conditions: concentrations which prolong the thrombin clotting time to over 500 seconds (10 to 20 U/ml)
# Experimental: The circuit consists of Tygon tubing (3/16"×1/16") connected to a 40 micron transfusion filter (Pall SQ40S). The system includes 3-way stopcocks for blood sampling. A surgical pressure transducer connected to a pressure recorder (Hewlett-Packard) is connected in line with the filter so that clotting of the filter causes a steady increase in pressure. Citrated whole blood taken from normal, healthy volunteers is used. The circuit is filled with 50 ml of whole blood placed in a reservoir and kept in a waterbath maintained at 37° C. The anticoagulant to be tested is added to the circuit, clotting is initiated by recalcification (0.8 ml of 1.0M CaCl2), and the blood is recirculated at a constant flow rate through the thrombogenic surface using a roller head pump (Cole-Parmer MFLX modular drive with a large F/6 roll head cartridge). Thrombosis of the filter is monitored by a change in pressure in a gauge inserted into the circuit, proximal to the filter. […]
# The inactivation of surface-bound thrombin and fluid-phase thrombin can be measured simultaneously using this system. More particularly, inactivation of surface-bound thrombin is quantified by recording the delay in clotting of the circuit. […] Inactivation of fluid phase thrombin is quantified by recording the thrombin clotting time of plasma prepared from blood removed from the circuit just before recalcification.
# fluid-phase thrombin = experiment: Thrombin clotting time of plasma from blood of the extracorporeal circuit; format: biochemical, human
# Excerpt: The inactivation of surface-bound thrombin and fluid-phase thrombin can be measured simultaneously using this system. More particularly, inactivation of surface-bound thrombin is quantified by recording the delay in clotting of the circuit. This delay is contributed to, albeit to a lesser extent, by the inactivating effect of the anticoagulant on fluid phase thrombin, whose generation is potentiated by the clot-bound thrombin. Inactivation of fluid phase thrombin is quantified by recording the thrombin clotting time of plasma prepared from blood removed from the circuit just before recalcification.
substance,measurement,setting,value
Hirudin,prevention of thrombosis in the circuit compared with LA-LMWH,surface-bound thrombin,much less effective at preventing thrombosis in the circuit
same,TCT,fluid-phase thrombin; 10 U/mL (Table 3),> 500 s
same,TCT,fluid-phase thrombin; 20 U/ml (Table 3),> 500 s
